The numbers were not newly measured in patent US20250017946A1, “COMBINATION OF A BILE ACID AND A PHENYL BUTYRATE COMPOUND FOR THE TREATMENT OF NEURODEGENERATIVE DISEASES” (Amylyx Pharmaceuticals, Inc., priority 2021, published 2025), which cites them from elsewhere.

The structures appear in SMILES notation.

In the data set the test system is patient populations. The settings on record: for less common or rare adverse events / most commonly reported adverse events: individual component, multiple patient populations.

In the case of `O=C(O)CCCc1ccccc1` [PB, sodium phenylbutyrate], the “less common or rare adverse events” value was “nausea, vomiting, stomach upset, stomach pain, gastritis, headache, and skin rash”; the “most commonly reported adverse events” value is “Menstrual irregularities, decreased appetite, sweat-like body odor, and bad taste”.
Regarding `C[C@H](CCC(=O)NCCS(=O)(=O)O)[C@H]1CC[C@H]2[C@@H]3[C@@H](O)C[C@@H]4C[C@H](O)CC[C@]4(C)[C@H]3CC[C@]12C` [TURSO, tauroursodeoxycholic acid], the “less common or rare adverse events” value was “skin rash and vomiting”; the “most commonly reported adverse events” value was “mild diarrhea, abdominal and pain”. The “most common adverse reactions reported (≥1%)” value (use of TURSO) is “abdominal discomfort, abdominal pain, diarrhea, nausea, pruritus, and rash”.
